Measurements: ChEMBL document CHEMBL1772971, “Novel 18F-labeled benzofuran derivatives with improved properties for positron emission tomography (PET) imaging of β-amyloid plaques in Alzheimer's brains” (J Med Chem, 2011)
Each block holds one compound with its values, some of them ahead of it. The source made the active and inactive calls. The calls are words filed in the database; no cut-off is given here.

What was measured:
[1] = Displacement of [125I]IMPY from amyloid beta (1 to 42) after 3 hrs by gamma counting
[2] = molecular target: Amyloid-beta precursor protein (Homo sapiens) (UniProt P05067); assay: Binding affinity to beta amyloid plaques in normal human brain at 444 kBq/50 uL after 1 hr by autoradiography; conditions: tested as the 18F-labelled form
Brain [3] = assay: Ratio of drug level in brain after 2 mins to brain after 60 mins in ddY mouse […] at 185 to 370 kBq, iv; type: ADME, organism-based; conditions: in vivo
Kidney [4] = assay: Biodistribution in ddY mouse kidney at 185 to 370 kBq, iv after 60 mins by gamma counting; type: ADME, organism-based; conditions: in vivo, 1 h
Lung [5] = assay: Biodistribution in ddY mouse lung at 185 to 370 kBq, iv after 30 mins by gamma counting; type: ADME, organism-based; conditions: in vivo, 0.5 h
Intestine [6] = assay: Biodistribution in ddY mouse intestine at 185 to 370 kBq, iv after 10 mins by gamma counting; type: ADME, organism-based; conditions: in vivo
Lung [7] = assay: Biodistribution in ddY mouse lung at 185 to 370 kBq, iv after 2 mins by gamma counting; type: ADME, organism-based; conditions: in vivo
Blood [8] = assay: Biodistribution in ddY mouse blood at 185 to 370 kBq, iv after 30 mins by gamma counting; type: ADME, organism-based; conditions: in vivo, 0.5 h
Kidney [9] = assay: Biodistribution in ddY mouse kidney at 185 to 370 kBq, iv after 2 mins by gamma counting; type: ADME, organism-based; conditions: in vivo
Lung [10] = assay: Biodistribution in ddY mouse lung at 185 to 370 kBq, iv after 60 mins by gamma counting; type: ADME, organism-based; conditions: in vivo, 1 h
Pancreas [11] = assay: Biodistribution in ddY mouse pancreas at 185 to 370 kBq, iv after 2 mins by gamma counting; type: ADME, organism-based; conditions: in vivo
Brain [12] = assay: Biodistribution in wild type mouse brain at 11.1 MBq, iv after 30 mins by autoradiography; type: ADME, organism-based; conditions: in vivo, 0.5 h
Spleen [13] = assay: Biodistribution in ddY mouse spleen at 185 to 370 kBq, iv after 10 mins by gamma counting; type: ADME, organism-based; conditions: in vivo
Intestine [14] = assay: Biodistribution in ddY mouse intestine at 185 to 370 kBq, iv after 30 mins by gamma counting; type: ADME, organism-based; conditions: in vivo, 0.5 h
Bone [15] = assay: Biodistribution in ddY mouse bone at 185 to 370 kBq, iv after 2 mins by gamma counting; type: ADME, organism-based, Bone element; conditions: in vivo
Stomach [16] = assay: Biodistribution in ddY mouse stomach assessed per organ at 185 to 370 kBq, iv after 2 mins by gamma counting; type: ADME, organism-based; conditions: in vivo
Heart [17] = assay: Biodistribution in ddY mouse […] at 185 to 370 kBq, iv after 2 mins by gamma counting; type: ADME, organism-based; conditions: in vivo
Liver [18] = assay: Biodistribution in ddY mouse liver at 185 to 370 kBq, iv after 30 mins by gamma counting; type: ADME, organism-based; conditions: in vivo, 0.5 h
Stomach [19] = assay: Biodistribution in ddY mouse stomach assessed per organ at 185 to 370 kBq, iv after 60 mins by gamma counting; type: ADME, organism-based; conditions: in vivo, 1 h
Spleen [20] = assay: Biodistribution in ddY mouse spleen at 185 to 370 kBq, iv after 30 mins by gamma counting; type: ADME, organism-based; conditions: in vivo, 0.5 h
Brain [21] = assay: Biodistribution in ddY mouse brain at 185 to 370 kBq, iv after 2 mins by gamma counting; type: ADME, organism-based; conditions: in vivo
Bone [22] = assay: Biodistribution in ddY mouse bone at 185 to 370 kBq, iv after 60 mins by gamma counting; type: ADME, organism-based, Bone element; conditions: in vivo, 1 h
Stomach [23] = assay: Biodistribution in ddY mouse stomach assessed per organ at 185 to 370 kBq, iv after 10 mins by gamma counting; type: ADME, organism-based; conditions: in vivo
Intestine [24] = assay: Biodistribution in ddY mouse intestine at 185 to 370 kBq, iv after 60 mins by gamma counting; type: ADME, organism-based; conditions: in vivo, 1 h
Kidney [25] = assay: Biodistribution in ddY mouse kidney at 185 to 370 kBq, iv after 30 mins by gamma counting; type: ADME, organism-based; conditions: in vivo, 0.5 h
Heart [26] = assay: Biodistribution in ddY mouse […] at 185 to 370 kBq, iv after 30 mins by gamma counting; type: ADME, organism-based; conditions: in vivo, 0.5 h
Brain [27] = assay: Biodistribution in ddY mouse brain at 185 to 370 kBq, iv after 60 mins by gamma counting; type: ADME, organism-based; conditions: in vivo, 1 h
Blood [28] = assay: Biodistribution in ddY mouse blood at 185 to 370 kBq, iv after 60 mins by gamma counting; type: ADME, organism-based; conditions: in vivo, 1 h
Bone [29] = assay: Biodistribution in ddY mouse bone at 185 to 370 kBq, iv after 10 mins by gamma counting; type: ADME, organism-based, Bone element; conditions: in vivo
Intestine [30] = assay: Biodistribution in ddY mouse intestine at 185 to 370 kBq, iv after 2 mins by gamma counting; type: ADME, organism-based; conditions: in vivo
Blood [31] = assay: Biodistribution in ddY mouse blood at 185 to 370 kBq, iv after 10 mins by gamma counting; type: ADME, organism-based; conditions: in vivo
Heart [32] = assay: Biodistribution in ddY mouse […] at 185 to 370 kBq, iv after 60 mins by gamma counting; type: ADME, organism-based; conditions: in vivo, 1 h
Blood [33] = assay: Biodistribution in ddY mouse blood at 185 to 370 kBq, iv after 2 mins by gamma counting; type: ADME, organism-based; conditions: in vivo
Heart [34] = assay: Biodistribution in ddY mouse […] at 185 to 370 kBq, iv after 10 mins by gamma counting; type: ADME, organism-based; conditions: in vivo
Lung [35] = assay: Biodistribution in ddY mouse lung at 185 to 370 kBq, iv after 10 mins by gamma counting; type: ADME, organism-based; conditions: in vivo
Stomach [36] = assay: Biodistribution in ddY mouse stomach assessed per organ at 185 to 370 kBq, iv after 30 mins by gamma counting; type: ADME, organism-based; conditions: in vivo, 0.5 h
Bone [37] = assay: Biodistribution in ddY mouse bone at 185 to 370 kBq, iv after 30 mins by gamma counting; type: ADME, organism-based, Bone element; conditions: in vivo, 0.5 h
Spleen [38] = assay: Biodistribution in ddY mouse spleen at 185 to 370 kBq, iv after 2 mins by gamma counting; type: ADME, organism-based; conditions: in vivo
Brain [39] = assay: Biodistribution in Tg2576 transgenic mouse brain at 11.1 MBq, iv after 30 mins by autoradiography; type: ADME, organism-based; conditions: in vivo, 0.5 h
Liver [40] = assay: Biodistribution in ddY mouse liver at 185 to 370 kBq, iv after 2 mins by gamma counting; type: ADME, organism-based; conditions: in vivo
Liver [41] = assay: Biodistribution in ddY mouse liver at 185 to 370 kBq, iv after 10 mins by gamma counting; type: ADME, organism-based; conditions: in vivo
Kidney [42] = assay: Biodistribution in ddY mouse kidney at 185 to 370 kBq, iv after 10 mins by gamma counting; type: ADME, organism-based; conditions: in vivo
Brain [43] = assay: Biodistribution in ddY mouse brain at 185 to 370 kBq, iv after 30 mins by gamma counting; type: ADME, organism-based; conditions: in vivo, 0.5 h
Pancreas [44] = assay: Biodistribution in ddY mouse pancreas at 185 to 370 kBq, iv after 30 mins by gamma counting; type: ADME, organism-based; conditions: in vivo, 0.5 h
Liver [45] = assay: Biodistribution in ddY mouse liver at 185 to 370 kBq, iv after 60 mins by gamma counting; type: ADME, organism-based; conditions: in vivo, 1 h
Spleen [46] = assay: Biodistribution in ddY mouse spleen at 185 to 370 kBq, iv after 60 mins by gamma counting; type: ADME, organism-based; conditions: in vivo, 1 h
Pancreas [47] = assay: Biodistribution in ddY mouse pancreas at 185 to 370 kBq, iv after 10 mins by gamma counting; type: ADME, organism-based; conditions: in vivo
Brain [48] = assay: Biodistribution in ddY mouse brain at 185 to 370 kBq, iv after 10 mins by gamma counting; type: ADME, organism-based; conditions: in vivo
Pancreas [49] = assay: Biodistribution in ddY mouse pancreas at 185 to 370 kBq, iv after 60 mins by gamma counting; type: ADME, organism-based; conditions: in vivo, 1 h

Chain of Amyloid-beta precursor protein (Homo sapiens) (P05067 whole entry): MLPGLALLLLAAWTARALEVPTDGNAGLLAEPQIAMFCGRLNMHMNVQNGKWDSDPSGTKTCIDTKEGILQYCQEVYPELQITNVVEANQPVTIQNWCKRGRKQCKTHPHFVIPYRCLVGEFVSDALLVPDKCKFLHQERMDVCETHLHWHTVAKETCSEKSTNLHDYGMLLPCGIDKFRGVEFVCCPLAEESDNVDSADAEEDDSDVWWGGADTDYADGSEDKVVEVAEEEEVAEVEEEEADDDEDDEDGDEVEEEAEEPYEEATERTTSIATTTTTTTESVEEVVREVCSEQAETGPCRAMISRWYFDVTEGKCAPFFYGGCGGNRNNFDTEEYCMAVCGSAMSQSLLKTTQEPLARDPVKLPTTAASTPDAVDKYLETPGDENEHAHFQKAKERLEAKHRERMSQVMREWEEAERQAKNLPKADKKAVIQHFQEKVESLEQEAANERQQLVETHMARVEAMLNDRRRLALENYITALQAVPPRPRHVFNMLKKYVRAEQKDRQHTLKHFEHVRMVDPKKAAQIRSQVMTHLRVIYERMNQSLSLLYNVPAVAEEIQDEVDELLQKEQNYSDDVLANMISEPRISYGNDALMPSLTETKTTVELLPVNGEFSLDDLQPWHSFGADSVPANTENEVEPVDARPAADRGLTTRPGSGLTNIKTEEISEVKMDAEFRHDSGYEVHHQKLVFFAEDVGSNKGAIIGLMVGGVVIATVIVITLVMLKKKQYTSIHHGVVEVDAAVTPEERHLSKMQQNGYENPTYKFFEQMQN

- Ki [1]: 2 nM
SMILES: CN(C)c1ccc(-c2cc3cc(OCCOCCOCCF)ccc3o2)cc1

- Activity [2]: inactive
- Ki [1]: 3.85 nM
SMILES: CNc1ccc(-c2cc3cc(OCCOCCOCCF)ccc3o2)cc1

- Ratio (Brain [3]): 4.8
SMILES: CNc1ccc(/C=C/c2ccc(OCCOCCOCC[18F])cc2)cc1 [FLORBETABEN F18]

- Drug uptake (Kidney [4]): 3.7 % ID/g
- Drug uptake (Lung [5]): 4.34 % ID/g
- Drug uptake (Intestine [6]): 8.39 % ID/g
- Drug uptake (Lung [7]): 5.68 % ID/g
- Drug uptake (Blood [8]): 2.66 % ID/g
- Drug uptake (Kidney [9]): 11.9 % ID/g
- Drug uptake (Lung [10]): 2.88 % ID/g
- Drug uptake (Pancreas [11]): 5.14 % ID/g
- Drug uptake (Brain [12]): Not Active
- Drug uptake (Spleen [13]): 2.15 % ID/g
- Drug uptake (Intestine [14]): 24.1 % ID/g
- Drug uptake (Bone [15]): 2.65 % ID/g
- Drug uptake (Stomach [16]): 3.73 %ID
- Drug uptake (Heart [17]): 5.19 % ID/g
- Drug uptake (Liver [18]): 19.2 % ID/g
- Drug uptake (Stomach [19]): 22.5 %ID
- Drug uptake (Spleen [20]): 3.14 % ID/g
- Drug uptake (Brain [21]): 7.38 % ID/g
- Ratio (Brain [3]): 2.34
- Drug uptake (Bone [22]): 1.72 % ID/g
- Drug uptake (Stomach [23]): 7.55 %ID
- Drug uptake (Intestine [24]): 30.9 % ID/g
- Drug uptake (Kidney [25]): 7.83 % ID/g
- Drug uptake (Heart [26]): 3.59 % ID/g
- Drug uptake (Brain [27]): 3.15 % ID/g
- Drug uptake (Blood [28]): 2.42 % ID/g
- Drug uptake (Bone [29]): 1.63 % ID/g
- Drug uptake (Intestine [30]): 4.24 % ID/g
- Drug uptake (Blood [31]): 3.02 % ID/g
- Drug uptake (Heart [32]): 2.6 % ID/g
- Drug uptake (Blood [33]): 4.96 % ID/g
- Drug uptake (Heart [34]): 2.51 % ID/g
- Drug uptake (Lung [35]): 3.12 % ID/g
- Drug uptake (Stomach [36]): 18.8 %ID
- Drug uptake (Bone [37]): 1.79 % ID/g
- Drug uptake (Spleen [38]): 2.91 % ID/g
- Drug uptake (Brain [39]): Active
- Drug uptake (Liver [40]): 16.8 % ID/g
- Drug uptake (Liver [41]): 17.5 % ID/g
- Drug uptake (Kidney [42]): 6.22 % ID/g
- Drug uptake (Brain [43]): 4.03 % ID/g
- Drug uptake (Pancreas [44]): 4.91 % ID/g
- Drug uptake (Liver [45]): 8.71 % ID/g
- Drug uptake (Spleen [46]): 2.24 % ID/g
- Drug uptake (Pancreas [47]): 2.68 % ID/g
- Drug uptake (Brain [48]): 4.86 % ID/g
- Drug uptake (Pancreas [49]): 2.55 % ID/g
SMILES: CNc1ccc(-c2cc3cc(OCCOCCOCC[18F])ccc3o2)cn1

- Drug uptake (Blood [8]): 5.33 % ID/g
- Drug uptake (Brain [12]): Not Active
- Drug uptake (Bone [15]): 1.57 % ID/g
- Drug uptake (Brain [21]): 8.18 % ID/g
- Ratio (Brain [3]): 2.11
- Drug uptake (Bone [22]): 3.3 % ID/g
- Drug uptake (Brain [27]): 3.87 % ID/g
- Drug uptake (Blood [28]): 7.33 % ID/g
- Drug uptake (Bone [29]): 1.98 % ID/g
- Drug uptake (Blood [31]): 4.17 % ID/g
- Drug uptake (Blood [33]): 4.1 % ID/g
- Drug uptake (Bone [37]): 2.07 % ID/g
- Drug uptake (Brain [39]): Active
- Drug uptake (Brain [43]): 4.26 % ID/g
- Drug uptake (Brain [48]): 6.43 % ID/g
SMILES: CNc1ccc(-c2cc3cc(OCCOCCOCC[18F])ccc3o2)cc1
